The source made the active and inactive calls. The rule behind the calls is not given here.
Key:
Format in all cases: cell-based
[1] = target: T1, Glucocorticoid receptor (Homo sapiens, UniProt P04150); experiment: (§1) Agonist activity at GR in human HepG2 cells assessed as protein mediated-transcriptional activity by MMTV-promoter driven luciferase reporter gene assay
T1 sequence (P04150 whole entry): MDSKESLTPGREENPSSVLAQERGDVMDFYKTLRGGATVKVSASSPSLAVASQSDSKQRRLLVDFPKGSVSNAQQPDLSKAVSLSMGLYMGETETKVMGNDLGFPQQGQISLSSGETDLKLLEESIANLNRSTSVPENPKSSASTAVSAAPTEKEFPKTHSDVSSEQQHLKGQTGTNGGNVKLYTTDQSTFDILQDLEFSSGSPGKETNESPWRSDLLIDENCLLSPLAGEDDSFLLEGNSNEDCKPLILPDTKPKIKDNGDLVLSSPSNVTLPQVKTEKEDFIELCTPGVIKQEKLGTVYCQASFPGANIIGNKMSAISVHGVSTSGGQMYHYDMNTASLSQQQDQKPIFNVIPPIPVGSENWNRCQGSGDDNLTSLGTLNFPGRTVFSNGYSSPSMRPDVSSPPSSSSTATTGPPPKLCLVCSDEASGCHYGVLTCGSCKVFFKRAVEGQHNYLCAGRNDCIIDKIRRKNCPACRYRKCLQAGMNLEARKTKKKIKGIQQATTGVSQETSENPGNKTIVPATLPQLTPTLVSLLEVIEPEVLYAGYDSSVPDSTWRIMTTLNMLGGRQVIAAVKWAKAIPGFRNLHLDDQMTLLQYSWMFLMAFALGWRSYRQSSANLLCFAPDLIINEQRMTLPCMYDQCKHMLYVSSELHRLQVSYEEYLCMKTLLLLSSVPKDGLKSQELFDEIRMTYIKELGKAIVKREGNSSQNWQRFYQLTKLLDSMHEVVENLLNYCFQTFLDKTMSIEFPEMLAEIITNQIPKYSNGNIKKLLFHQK

[2] = target: T2, Glucocorticoid receptor (Homo sapiens) (UniProt P04150); experiment: as §1
T2 sequence (whole entry): T1 sequence (P04150 whole entry)

[3] = target: T3, Glucocorticoid receptor (Mus musculus) (UniProt P06537); experiment: Antagonist activity at GR in mouse C2C12 cells assessed as increase in LPS-induced IL6 production by alphaLISA assay relative to control; parameters: scale not given: the % may be the effect or the level left
T3 sequence (whole entry): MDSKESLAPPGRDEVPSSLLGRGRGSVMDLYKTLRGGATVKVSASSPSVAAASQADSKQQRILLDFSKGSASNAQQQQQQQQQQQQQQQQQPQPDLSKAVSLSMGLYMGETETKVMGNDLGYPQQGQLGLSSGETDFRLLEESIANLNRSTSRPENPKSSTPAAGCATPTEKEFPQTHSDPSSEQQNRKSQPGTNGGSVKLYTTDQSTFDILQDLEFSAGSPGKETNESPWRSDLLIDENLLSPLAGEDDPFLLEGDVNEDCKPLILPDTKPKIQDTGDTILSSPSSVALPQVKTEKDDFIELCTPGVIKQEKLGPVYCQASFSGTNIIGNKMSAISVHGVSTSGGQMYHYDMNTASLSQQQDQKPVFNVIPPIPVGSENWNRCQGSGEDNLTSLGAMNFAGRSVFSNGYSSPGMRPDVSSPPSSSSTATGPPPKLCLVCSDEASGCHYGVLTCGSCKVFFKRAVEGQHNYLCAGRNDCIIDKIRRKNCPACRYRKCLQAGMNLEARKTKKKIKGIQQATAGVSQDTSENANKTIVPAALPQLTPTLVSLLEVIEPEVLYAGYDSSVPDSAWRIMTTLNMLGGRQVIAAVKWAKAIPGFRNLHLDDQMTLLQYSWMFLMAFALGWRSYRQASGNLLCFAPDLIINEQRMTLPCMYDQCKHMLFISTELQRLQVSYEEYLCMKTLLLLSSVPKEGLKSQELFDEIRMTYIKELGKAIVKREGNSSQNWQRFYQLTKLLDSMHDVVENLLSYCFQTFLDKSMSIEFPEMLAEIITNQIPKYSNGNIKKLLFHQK

[4] = target: T2, Glucocorticoid receptor (Homo sapiens); experiment: (§2) Antagonist activity at GR in human HepG2 cells assessed as inhibition of protein mediated-transcriptional activity by MMTV-promoter driven luciferase reporter gene assay
[5] = target: T2, Glucocorticoid receptor (Homo sapiens); experiment: Antagonist activity at GR in human HepG2 cells assessed as inhibition of protein mediated-transcriptional activity at 10 uM by MMTV-promoter driven luciferase reporter gene assay
[6] = target: T1, Glucocorticoid receptor; experiment: as §2
[7] = target: T3, Glucocorticoid receptor (Mus musculus); experiment: Agonist activity at GR in mouse C2C12 cells assessed as suppression of LPS-induced IL6 production by alphaLISA assay

Structure (SMILES) | EC50 [1] [nM] | Efficacy [2] [%] | Activity [3] | Efficacy [4] [%] | Efficacy [5] [%] | IC50 [6] [nM] | Activity [7]
Cc1ncccc1NC(=O)c1ccc2c(c1)CC[C@@H]1[C@@H]2[C@@H](O)C[C@@]2(C)[C@H]1CC[C@@]2(O)C#C[Si](C)(C)C | 47 | 110 | Active | 90 | – | – | –
CC#C[C@]1(O)CC[C@H]2[C@@H]3CCc4cc(C(=O)Nc5cncc(C)c5)ccc4[C@H]3[C@@H](O)C[C@@]21C | – | -0.1 | Active | – | 22 | – | –
CC#C[C@]1(O)CC[C@H]2[C@@H]3CCc4cc(C(=O)Nc5cccnc5)ccc4[C@H]3[C@@H](O)C[C@@]21C | – | 0.2 | 50% | 10 | – | 455 | –
C#C[C@]1(O)CC[C@H]2[C@@H]3CCc4cc(C(=O)Nc5cccnc5C)ccc4[C@H]3[C@@H](O)C[C@@]21C | – | 3.2 | Active | 96 | – | – | –
CC#C[C@]1(O)CC[C@H]2[C@@H]3CCc4cc(C(=O)Nc5cccnc5C)ccc4C3=CC[C@@]21C | 1860 | 51.6 | – | 30.6 | – | – | Active
CCCCC#C[C@]1(O)CC[C@H]2[C@@H]3CCc4cc(C(=O)Nc5cccnc5C)ccc4[C@H]3[C@@H](O)C[C@@]21C | 100 | 56 | Active | 74 | – | 2350 | –
Cc1ncccc1NC(=O)c1ccc2c(c1)CC[C@@H]1[C@@H]2[C@@H](O)C[C@]2(C)[C@@H](O)CC[C@@H]12 | – | 0.4 | Active | 85 | – | – | –
CC#C[C@]1(O)CC[C@H]2[C@@H]3CCc4cc(C(=O)Nc5cnccc5C)ccc4[C@H]3[C@@H](O)C[C@@]21C | 240 | 73 | – | 147 | – | – | Active
CC#C[C@]1(O)CC[C@H]2[C@@H]3CCc4cc(C(=O)Nc5ccncc5C)ccc4[C@H]3[C@@H](O)C[C@@]21C | 149 | 12 | Active | 23 | – | 1360 | –
Cc1ncccc1NC(=O)c1ccc2c(c1)CC[C@@H]1[C@@H]2[C@@H](O)C[C@@]2(C)[C@H]1CC[C@@]2(O)C#Cc1ccccc1 | – | 2.1 | Active | 1.4 | – | 558 | –
CC#C[C@]1(O)CC[C@H]2[C@@H]3CCc4cc(C(=O)Nc5ncccc5C)ccc4[C@H]3[C@@H](O)C[C@@]21C | 280 | 92 | – | 239 | – | – | Active
Cc1ncccc1NC(=O)c1ccc2c(c1)CC[C@@H]1[C@@H]2[C@@H](O)C[C@@]2(C)[C@H]1CC[C@]2(C)O | – | -0.5 | Active | 112 | – | – | –
Cc1ncccc1NC(=O)c1ccc2c(c1)CC[C@@H]1[C@@H]2[C@@H](O)C[C@@]2(C)[C@H]1CC[C@@]2(O)C#CC(C)C | > 5000 | 28 | Active | 39 | – | 37 | –
C=CCOC(=O)O[C@H]1C[C@@]2(C)[C@@H](CC[C@@]2(O)C#CC)[C@@H]2CCc3cc(C(=O)Nc4cccnc4C)ccc3[C@H]21 | – | 2.4 | – | -0.7 | – | 84 | Active

Further lines, results first:

EC50 [1] [nM] | Efficacy [2] [%] | Activity [3] | Efficacy [4] [%] | Efficacy [5] [%] | IC50 [6] [nM] | Activity [7] | Structure (SMILES)
0.05 | 67 | – | 73 | – | – | Active | CC#C[C@]1(O)CC[C@H]2[C@@H]3CCc4cc(C(=O)Nc5cccnc5C)ccc4[C@H]3[C@@H](OCC)C[C@@]21C
– | -0.2 | – | 0.06 | – | 0.07 | Active | CC#C[C@]1(O)CC[C@H]2[C@@H]3CCc4cc(C(=O)Nc5cccnc5C)ccc4[C@H]3[C@@H](OCc3ccc(Cl)cc3)C[C@@]21C
– | 0.2 | – | -0.3 | – | 0.9 | Active | CC#C[C@]1(O)CC[C@H]2[C@@H]3CCc4cc(C(=O)Nc5cccnc5C)ccc4[C@H]3[C@@H](OCc3cccc(Cl)c3)C[C@@]21C
0.04 | 71 | – | 84 | – | – | Active | CC#C[C@]1(O)CC[C@H]2[C@@H]3CCc4cc(C(=O)Nc5cccnc5C)ccc4[C@H]3[C@@H](OC)C[C@@]21C
– | -0.4 | – | -0.1 | – | 0.4 | Active | CC#C[C@]1(O)CC[C@H]2[C@@H]3CCc4cc(C(=O)Nc5cccnc5C)ccc4[C@H]3[C@@H](OCc3ccccc3)C[C@@]21C
0.11 | 56 | – | 57 | – | 0.03 | Active | C=CCO[C@H]1C[C@@]2(C)[C@@H](CC[C@@]2(O)C#CC)[C@@H]2CCc3cc(C(=O)Nc4cccnc4C)ccc3[C@H]21
– | 0.6 | – | 1.7 | – | 1.4 | Active | CC#C[C@]1(O)CC[C@H]2[C@@H]3CCc4cc(C(=O)Nc5cccnc5C)ccc4[C@H]3[C@@H](OCc3ccccc3Cl)C[C@@]21C
– | 19.4 | – | 55 | – | – | Active | CC#C[C@]1(O)CC[C@H]2[C@@H]3CCc4cc(C(=O)Nc5cccnc5C)ccc4[C@H]3[C@H](O)C[C@@]21C
265 | 35 | – | 46 | – | 626 | Active | CC#C[C@]1(O)CC[C@H]2[C@@H]3CCc4cc(C(=O)Nc5cccnc5C)ccc4[C@H]3[C@@H](O)C[C@@]21C
